Test results published in patent US11851391B2, “Antifungal compounds and methods of forming the same” (University of Kentucky Research Foundation, priority 2018, dated 2023).
Values after ≈ are worked out from the molar mass of the structure shown. Like-named read-outs stand apart in the source and are kept apart here.

Experiments:
[1] = test system: murine red blood cells (mRBCs); conditions: for Percentage of hemolysis (±SDEV): mouse, 60 min
Protocol: Thus, the hemolytic activity for these bishydrazones was investigated against murine red blood cells (mRBCs).
Murine red blood cells (mRBCs) were prepared by suspending 1 mL of murine blood in 3 mL of PBS prior to centrifugation at 1,000 rpm for 5 min. The mRBCs were washed four times in PBS and resuspended in the same buffer to a final concentration of 10^7 mRBC/mL. […] The tubes were incubated at 37° C. for 60 min. […] Eppendorf tubes containing 200 μL of ddH2O and 2 μL of 1% v/v Triton™ X-100 served as negative (blank) and positive controls, respectively. The percentage of hemolysis was calculated using the following equation: % hemolysis=[(absorbance of sample)−(absorbance of blank)]×100/(absorbance of positive control).

[2] = test system: Aspergillus flavus ATCC MYA-3631 (strain K); assay: MIC determination against filamentous fungi (CLSI M38-A2); assay type: cell-based; conditions: MIC-0, 48 h at 35° C.
Procedure, shortened: (§1)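 MIC-0, meaning no visible growth relative to growth control, was scored after 48 h at 35° C, in triplicate. Hemocytometer-counted spores from potato dextrose agar were inoculated at 5×10^5 CFU/mL final. The medium was MOPS-buffered (0.165 M) RPMI 1640 at pH 7.0, following CLSI M38-A2.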

[3] = test system: Aspergillus nidulans ATCC 38163 (strain L); assay: as above; assay type: cell-based; conditions: MIC-0, 48 h at 35° C.
Procedure, shortened: as §1

[4] = test system: Aspergillus terreus ATCC MYA-3633 (strain M); assay: as above; assay type: cell-based; conditions: MIC-0, 48 h at 35° C.
Procedure, shortened: as §1

[5] = test system: human lung carcinoma cell line A549; assay: In vitro cytotoxicity assay (resazurin); assay type: cell-based; conditions: 24 h
Protocol: The human bronchus normal cell line BEAS-2B (ATCC CRL-9609) and the human lung carcinoma cell line A549 (ATCC CRL-185) were kind gifts from the laboratories of Dr. Matthew S. Gentry (University of Kentucky, Lexington, KY, USA) and Dr. David K. Orren (University of Kentucky, Lexington, KY, USA). The mammalian cells were grown in Dulbecco's Modified Eagle's Medium (DMEM) (from ATCC) with 10% fetal bovine serum (FBS) (from ATCC) and 1% Pen/Strep (from ATCC). Cell lines were cultured at 37° C. with 5% CO2 and passaged by trypsinization with 0.05% trypsin:0.53 mM EDTA (from ATCC). Cell confluency was determined by using a Nikon Eclipse TS100 microscope (Minato, Tokyo, Japan).
Cytotoxicity assays were performed as previously described with slight modifications. A549 and BEAS-2B cells were first thawed from stocks and grown. The confluent cells were transferred to a 96-well microtiter plates at density of 3000 cells/well. The 96-well plates were incubated at 37° C. with 5% CO2 overnight. […] The stock solutions were serially diluted in 1.5 mL eppendorf tubes to achieve concentrations of 31-0.12 mg/mL. 1 μL of these 1000× compound stock solutions was then added to 999 μL of DMEM medium in 1.5 mL eppendorf tubes to obtain final concentrations of 31-0.12 μg/mL. […] The 96-well plates were further incubated for 24 h at 37° C. with 5% CO2. To evaluate cell survival, each well was treated with 10 μL (25 mg/L) of resazurin sodium salt (Sigma-Aldrich, St. Louis, MO, USA) and incubated for another 6 h. Metabolically active cells can convert resazurin to the highly fluorescent dye, resorufin, and be detected at A560 excitation and A590 emission using a SpectraMax M5 plate reader (Molecular Devices, San Jose, CA, USA). […] The percentage survival rates were calculated by using the following formula: % cell survival=[(fluorescence of sample)−(fluorescence of background)]×100/[(fluorescence of negative control)−(fluorescence of background)]. Experiments were done in duplicate.

[6] = Aspergillus flavus, 48 h, read-out: MIC
[7] = Aspergillus nidulans, ATCC38163, 48 h, read-out: MIC
[8] = Aspergillus terreus, 48 h, read-out: MIC
[9] = A549 (printed A459) at 31 μg/mL

Row | SMILES | MIC [2, 6] [µg/mL] | MIC [3, 7] [µg/mL] | MIC [3] [µg/mL] | MIC [4, 8] [µg/mL] | MIC [2] [µg/mL] | MIC [4] [µg/mL] | hemolytic activity (in words) [1] | Percentage of hemolysis (±SDEV) ([1]; 0.975 μg/mL) [%] | Percentage of hemolysis (±SDEV) ([1]; 1.95 μg/mL) [%] | Percentage of hemolysis (±SDEV) ([1]; 3.9 μg/mL) [%] | Percentage of hemolysis (±SDEV) ([1]; 7.8 μg/mL) [%] | Percentage of hemolysis (±SDEV) ([1]; 15.6 μg/mL) [%] | Percentage of hemolysis (±SDEV) ([1]; 31.3 μg/mL) [%] | toxicity (in words) [5, 9] | toxicity (in words) ([5]; A549 at 15.5 μg/mL) | Percentage of hemolysis (±SDEV) ([1]; 62.5 μg/mL) [%]
1 | COc1ccc(N/N=C/c2ccc(-c3ccc(/C=N/Nc4ccc(OC)cc4)cc3)cc2)cc1 [Compound 15b] | > 31.3 | 7.8 to 15.6 (≈ 17.3 to 34.6 µM) | 7.8 (≈ 17.3 µM) | > 31.3 | – | – | lack of hemolytic activity | 1.6 ± 2.3 | 1.9 ± 0.3 | 2.8 ± 0.6 | 4.2 ± 3.1 | 6.7 ± 2.0 | 12.6 ± 4.7 | generally non-toxic | – | –
2 | C(=N\Nc1ccccc1)/c1ccc(-c2cccc(/C=N/Nc3ccccc3)c2)cc1 [Compound 7a] | 1.95 to 3.9 (≈ 4.99 to 9.99 µM) | 1.95 to 3.9 (≈ 4.99 to 9.99 µM) | 1.95 (≈ 4.99 µM) | 7.8 to 15.6 (≈ 20 to 39.9 µM) | 3.9 (≈ 9.99 µM) | 15.6 (≈ 39.9 µM) | lack of hemolytic activity | 0 | 3.5 ± 3.3 | 1.5 ± 0.9 | 8.5 ± 5.1 | 14.1 ± 0.1 | 16.7 ± 0.9 | – | – | –
3 | COc1ccc(N/N=C/c2ccc(-c3cccc(/C=N/Nc4ccc(OC)cc4)c3)cc2)cc1 [Compound 15a] | > 31.3 | 31.3 (≈ 69.5 µM) | – | > 31.3 | – | – | lack of hemolytic activity | 2.6 ± 3.4 | 4.5 ± 1.7 | 3.0 ± 1.6 | 2.6 ± 2.8 | 7.8 ± 3.3 | 9.6 ± 1.7 | generally non-toxic | – | –
4 | Fc1cccc(N/N=C/c2ccc(-c3cccc(/C=N/Nc4cccc(F)c4)c3)cc2)c1 [Compound 12a] | 1.95 to 3.9 (≈ 4.57 to 9.14 µM) | 7.8 to 15.6 (≈ 18.3 to 36.6 µM) | 7.8 (≈ 18.3 µM) | > 31.3 | 3.9 (≈ 9.14 µM) | – | lack of hemolytic activity | 4.6 ± 2.5 | 0.6 ± 0.6 | 2.5 ± 2.7 | 7.9 ± 0.1 | – | 32.6 ± 9.6 | – | no toxicity | 39.5 ± 12.1

More lines, main results first:

Row | MIC [2, 6] [µg/mL] | MIC [3, 7] [µg/mL] | MIC [3] [µg/mL] | MIC [4, 8] [µg/mL] | MIC [2] [µg/mL] | MIC [4] [µg/mL] | SMILES | hemolytic activity (in words) [1] | Percentage of hemolysis (±SDEV) ([1]; 0.975 μg/mL) [%] | Percentage of hemolysis (±SDEV) ([1]; 1.95 μg/mL) [%] | Percentage of hemolysis (±SDEV) ([1]; 3.9 μg/mL) [%] | Percentage of hemolysis (±SDEV) ([1]; 7.8 μg/mL) [%] | Percentage of hemolysis (±SDEV) ([1]; 15.6 μg/mL) [%] | Percentage of hemolysis (±SDEV) ([1]; 31.3 μg/mL) [%] | toxicity (in words) [5, 9] | toxicity (in words) ([5]; A549 at 15.5 μg/mL) | Percentage of hemolysis (±SDEV) ([1]; 62.5 μg/mL) [%]
5 | 7.8 (≈ 16.9 µM) | 7.8 (≈ 16.9 µM) | – | 31.3 (≈ 67.7 µM) | – | – | Fc1ccc(N/N=C/c2ccc(-c3cccc(/C=N/Nc4ccc(F)cc4F)c3)cc2)c(F)c1 [Compound 20a] | lack of hemolytic activity | 0 | 4.5 ± 2.3 | 4.2 ± 2.8 | 8.6 ± 1.6 | 14.6 ± 1.6 | 14.6 ± 0.7 | – | no toxicity | –
6 | 15.6 (≈ 36.6 µM) | 1.95 to 3.9 (≈ 4.57 to 9.14 µM) | 3.9 (≈ 9.14 µM) | > 31.3 | – | – | Fc1ccc(N/N=C/c2ccc(-c3cccc(/C=N/Nc4ccc(F)cc4)c3)cc2)cc1 [Compound 17a] | – | 0 | 6.0 ± 2.1 | 4.3 ± 1.6 | 9.5 ± 3.3 | 9.9 ± 2.1 | 14.4 ± 0.9 | generally non-toxic | – | 26.1 ± 11.1
7 | 7.8 to 15.6 (≈ 18.3 to 36.6 µM) | 7.8 to 15.6 (≈ 18.3 to 36.6 µM) | 7.8 (≈ 18.3 µM) | > 31.3 | 7.8 (≈ 18.3 µM) | – | Fc1ccc(N/N=C/c2ccc(-c3ccc(/C=N/Nc4ccc(F)cc4)cc3)cc2)cc1 [Compound 17b] | – | 0 | 1.1 ± 1.5 | 0.7 ± 1.1 | 3.2 ± 3.0 | 9.0 ± 8.5 | 9.6 ± 6.7 | – | – | 28.3 ± 4.1
8 | > 31.3 | 7.8 (≈ 17.2 µM) | – | > 31.3 | – | – | C/C(=N\Nc1ccc(F)cc1)c1ccc(-c2ccc(/C(C)=N/Nc3ccc(F)cc3)cc2)cc1 [Compound 17c, 4,4′-bis((E)-1-(2-(4-fluorophenyl)hydrazono)ethyl)-1,1′-biphenyl] | – | 1.4 ± 1.1 | 2.6 ± 0.9 | 2.6 ± 2.7 | 5.9 ± 0.3 | 7.4 ± 1.1 | 9.5 ± 2.2 | – | no toxicity | 26.2 ± 7.7
